PubChem BioAssay (NCI)
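48-hour exposure; five concentrations; linearly interpolated endpoints. Abbreviation: GI50, concentration required for 50% inhibition of growth. TGI: concentration producing complete growth inhibition.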

Legend:
Assay in all cases: inhibition of tumour cell growth, NCI panel, 48 h
SW-620 colon = test system: SW-620 colon
OVCAR-3 ovarian = test system: OVCAR-3 ovarian
K-562 leukemia = test system: K-562 leukemia
M14 melanoma = test system: M14 melanoma
SNB-19 CNS = test system: SNB-19 CNS
UO-31 renal = test system: UO-31 renal
MCF7 breast = test system: MCF7 breast
HS 578T breast = test system: HS 578T breast
TK-10 renal = test system: TK-10 renal
SR leukemia = test system: SR leukemia

Compound | TGI (SW-620 colon) [µM] | TGI (OVCAR-3 ovarian) [µM] | TGI (K-562 leukemia) [µM] | TGI (M14 melanoma) [µM] | TGI (SNB-19 CNS) [µM] | TGI (UO-31 renal) [µM] | TGI (MCF7 breast) [µM] | TGI (HS 578T breast) [µM] | TGI (TK-10 renal) [µM] | TGI (SR leukemia) [µM] | GI50 (SW-620 colon) [µM] | GI50 (OVCAR-3 ovarian) [µM] | GI50 (K-562 leukemia) [µM] | GI50 (M14 melanoma) [µM] | GI50 (SNB-19 CNS) [µM] | GI50 (UO-31 renal) [µM] | GI50 (TK-10 renal) [µM] | GI50 (MCF7 breast) [µM] | GI50 (HS 578T breast) [µM] | GI50 (SR leukemia) [µM]
O=c1c2ccccc2nc(-c2ccc(Cl)cc2)n1O | > 100 | > 100 | > 100 | > 100 | > 100 | 5.79 | 63.4 | > 100 | 88 |  |  |  |  |  |  |  |  |  |  | 
CCN(CCCl)CCNc1c2ccccc2nc2ccc(OC)cc12 | 2.04 | 4.71 | 2.51 | 2.45 | 8.62 | 3.98 | 3.55 |  | 5.82 |  |  |  |  |  |  |  |  |  |  | 
O=C1C(c2ccccc2)=C(c2ccccc2)C(c2ccccc2)/C1=C1\C(=O)C(c2ccccc2)=C(c2ccccc2)C1c1ccccc1 (stereo not given) | > 100 | > 100 |  | > 100 |  | > 100 |  |  | > 100 | > 100 |  |  |  |  |  |  |  |  |  | 
CC(CN(CP(=O)([O-])[O-])CP(=O)([O-])[O-])N(CP(=O)([O-])[O-])CP(=O)([O-])[O-].N[C@@H]1CCCC[C@@H]1N.[Pt+2] (stereo not given) | > 100 | > 100 | > 100 | > 100 | > 100 | > 100 |  |  | > 100 |  | > 100 | > 100 | > 100 | > 100 | > 100 | > 100 | > 100 |  |  | 
O=S1(=O)CSc2ccc3ccccc3c2-c2c1ccc1ccccc21 | > 100 | > 100 | > 100 | > 100 | > 100 | > 100 |  |  | > 100 | > 100 |  |  |  |  |  |  |  |  |  | 
CC1=C(C)C(=O)C(C(C)C2=C(C)C(=O)C(C)=C(C)C2=O)=C(C)C1=O | 29.8 | 54 | > 100 | > 100 |  | 85.5 | > 100 | > 100 | > 100 | 31.7 | 15.7 | 21 | 13.2 | 53.7 |  | 27.6 | 90.6 | 29 | 29.2 | 7.35
CC(=O)O[C@H]1CC[C@@]2(C)C(=CC[C@@H]3C2CC[C@]2(C)Nc4oncc4CC32)C1 (stereo not given in full) | > 100 | 30.7 | 21.1 | > 100 |  | 70.7 |  |  | > 100 |  |  |  |  |  |  |  |  |  |  | 
CC1SC(c2cccs2)N(NC(=O)C(O)c2ccccc2)C1=O (stereo not given) | > 100 | > 100 | > 100 | > 100 | > 100 | > 100 | > 100 | > 100 | > 100 |  | > 100 | > 100 | > 100 | > 100 | > 100 | > 100 | > 100 | > 100 | > 100 | 
Cc1cc2c(=O)cc(-c3ccc(Cl)cc3)oc2c(C(=O)O)c1C | > 100 | > 100 | > 100 | > 100 | > 100 | > 100 |  |  | > 100 |  |  |  |  |  |  |  |  |  |  | 
CCCCOC(=O)N[C@H]1CCc2cc(OC)c(OC)c(OC)c2-c2ccc(SC)c(=O)cc21 | 79 | < 0.0329 | 65.1 | 15.6 | 73 | 49.5 | 26 |  | 52.4 | > 43 |  |  |  |  |  |  |  |  |  | 
N#CC(C#N)=C1NC(=O)C(c2ccccc2)C(=O)N1 (stereo not given) | > 100 | > 100 | > 100 | > 100 | > 100 | > 100 |  |  | > 100 | > 100 |  |  |  |  |  |  |  |  |  | 
Cc1ccc(/C=C2\CCOC2=O)cc1 | > 100 | > 100 | > 100 | > 100 | > 100 | > 100 | > 100 |  | > 100 | > 100 | > 100 | > 100 | > 100 | > 100 | > 100 | 41.8 | > 100 | > 100 |  | > 100
CCN1C(=O)N(c2c(F)c(OC)cc(OC)c2F)Cc2cnc3[nH]c(CN4CCOCC4)cc3c21 | > 100 | > 100 | > 100 | > 100 |  | > 100 | > 100 | > 100 |  | 9.95 | 3.51 | 5.73 | 8.66 | 1.32 |  | 0.878 |  | 8.04 | 1.82 | 1.62
CCOc1ccc(NC(=O)C2=C(C)NC(C)=C(C(=O)Nc3ccc(OCC)cc3)C2c2ccc([N+](=O)[O-])cc2)cc1 | > 100 | > 100 | > 100 | > 100 | > 100 | > 100 |  |  | > 100 |  |  |  |  |  |  |  |  |  |  | 
CC(=O)Nc1ccc(C(=O)N[C@@H]2C(=O)N3[C@@H]2SC(C)(C)[C@@H]3C(=O)O)cn1 | > 100 | > 100 | > 100 | > 100 | > 100 | > 100 | > 100 | > 100 | > 100 |  |  |  |  |  |  |  |  |  |  | 
Cn1cc(C(=O)C2CCCCC2)ccc1=O | > 100 | > 100 | > 100 | > 100 | > 100 | > 100 |  |  | > 100 | > 100 |  |  |  |  |  |  |  |  |  | 
Cc1cc(Cl)ccc1N1C(=O)C(=O)C(c2nc3ccccc3s2)C(=O)C1=O | > 100 | > 100 | > 100 | > 100 | > 100 | > 100 |  |  | > 100 | > 100 |  |  |  |  |  |  |  |  |  | 
C[Si](C)(C)/C(Br)=C\CCN1C(=O)CCC1O (stereo not given) | > 100 | > 100 | > 100 | > 100 | > 100 | > 100 |  |  | > 100 |  |  |  |  |  |  |  |  |  |  | 
O=C1c2cccnc2-c2nc(-c3ccc([N+](=O)[O-])cc3)cc3c2c1nc1ccccc13 | 15.6 | 1.74 | > 100 | 4.43 | 18.3 | > 66.1 | > 21.5 | 23.6 | 24.9 |  | 3.21 | 0.261 | 20.7 | 1.9 | 6.4 | 5.1 | 8.41 | 1.86 | 4.1 | 
CC(C)(C)c1cc(C(O)(C(F)(F)F)C(F)(F)F)c2c(c1)C(C(F)(F)F)(C(F)(F)F)OC(c1ccccc1)(C(C)(C)C)N2 (stereo not given) | 16.7 | 12.4 | 11.6 | 12.3 | 17.7 | 15.2 |  |  | 14.2 | 6.69 |  |  |  |  |  |  |  |  |  | 
